Laboratory results published in publication PMC7570662, “In Vivo Pharmacokinetic Analysis Utilizing Non-Targeted and Targeted Mass Spectrometry and In Vitro Assay against Transient Receptor Potential Channels of Maobushisaishinto and Its Constituent Asiasari Radix” (Molecules, 2020).

Assays:
[1] = Qualitative non-targeted LC-HRMS analysis of AR compounds in rat plasma after oral AR or MBST; type: in vivo; details: for AR-Treated Rat Plasma (detection of compound): rat plasma 1 h after oral 2 g/kg AR, n = 1, LC-HRMS; for MBST-Treated Rat Plasma (detection of compound): rat plasma 1 h after oral 2 g/kg MBST, n = 3, LC-HRMS
Description: Extract powders of AR or MBST were suspended in distilled water and orally administered to rats having fasted for approximately 16 h. The dose of AR was set at 2 g/kg, and the MBST doses were set at 1 and 2 g/kg. 1 g/kg MBST contained 578 µg/kg, 147 µg/kg, 226 µg/kg, 426 µg/kg asarinin, sesamin, methyl kakuol, and amide A, respectively. The doses were chosen based on a previous pharmacological study of MBST using rats.
According to previous pharmacokinetic studies of herbal medicines, many of the components were quickly absorbed into the bloodstream, thereby providing the rationale for a sampling time at 1 h. Blood was centrifuged at 1200× g at 4 °C for 30 min to obtain plasma; then, the sample was stored at −80 °C until LC-HRMS analysis. […]
The plasma samples were collected at 1 h after MBST administration in case of both the qualitative (non-targeted) analysis and the quantitative (targeted) analysis.
The plasma samples of AR- or MBST-treated rats collected at 1 h post-administration were pretreated by deproteinization using methanol before the LC-HRMS analysis as follows: 100 µL plasma sample was mixed with 500 µL methanol, and the resultant solution was vortexed for 2 min. The mixture was centrifuged at 7000× g at 4 °C for 5 min. The supernatant was dried using a centrifugal evaporator, and the dried residue was dissolved in 100 μL of the initial LC mobile phase which is composed of 0.1 vol% formic acid in water/acetonitrile (99.9/0.1, v/v) and recentrifuged at 7000× g at 4 °C for 5 min. Finally, a 5 μL aliquot of the supernatant was injected into the LC-HRMS system comprised of an Acquity Ultra-Performance Liquid Chromatography System (Waters, Milford, MA, USA) and a Xevo G2-XS quadrupole time-of-flight MS (Waters) and was chromatographically separated using an ACQUITY UPLC HSS T3 column (2.1 × 150 mm I.D., 1.8-μm particle size; Waters) with an ACQUITY UPLC HSS T3 VanGuard Pre-column (2.1 mm × 5 mm I.D., 1.8-μm particle size; Waters) at 40 °C. The mobile phase consisted of solution A (0.1% formic acid, v/v) and solution B (acetonitrile) with a gradient of solution B (0.1%, 0 min; 99%, 24 min; v/v) at a flow rate of 0.4 mL/min. The analysis of the mass spectrometer fit with an electrospray ionization probe with sensitivity mode was performed for both the positive and negative ion mode. The resolution of the mass spectrometer was set at >20,000. For MS^E experiments, two acquisition functions with different collision energies were created: a low-energy function with a collision energy of 6 eV and a high-energy function with collision energy ranging from 15 to 40 eV.

human TRPA1 = target: T1, human TRPA1 (Homo sapiens, UniProt O75762); assay: Ca2+ influx assay in TRPA1-expressing T-REx-293 cells; type: cell-based; details: 10 µmol/L test compound, relative to 20 µmol/L allyl isothiocyanate; for activation at 10 µM: T-REx-293, read-out: % of Activation Compared to Positive Control against Each Subfamily of TRP Channel TRPA1
T1 construct: Each full-length human TRPA1, TRPV1, TRPV4, and TRPM8 coding regions were introduced into a pcDNA4/TO vector; expressed in transfected cells; host or cells: T-REx-293 cells (tetracycline-induced, pcDNA4/TO vector)
Description: (§1) Each full-length human TRPA1, TRPV1, TRPV4, and TRPM8 coding regions were introduced into a pcDNA4/TO vector (Thermo Fisher Scientific, Waltham, MA, USA) and transfected into T-REx-293 cells (Thermo Fisher Scientific) to obtain stable cell lines expressing human TRPA1, TRPV1, TRPV4, and TRPM8. Cells were cultured in DMEM with 10% FBS, 4 mmol/L L-glutamine, and penicillin/streptomycin.
(§2) Cells were suspended in medium with 1 µg/mL tetracycline and seeded in poly-D-lysine coated 96-well plate at 2.5 × 10^4 cells/well. After overnight culture, the cells were used for Ca^2+ influx assay.
(§3) The Ca^2+ influx assay was performed using a FLIPR Calcium 5 Assay Kit (Molecular Devices, Sunnyvale, CA, USA) according to previously reported methods with minor modifications. In brief, cells were incubated with 80 µL Ca^2+-chelating dye dissolved in assay buffer at pH 7.4 (Hanks’ Balanced Salt Solution containing 20 mmol/L of N-2-hydroxyethylpiperazine-N’-2-ethanesulfonic acid) at room temperature for 30 min. The plates were assayed using a FlexStation 3 Microplate Reader (Molecular Devices). The fluorescence intensity was traced entirely for 80 s. The baseline of fluorescence was measured for 20 s before adding 20 µL of test compound (final concentration, 10 µmol/L). The response was expressed as percentage activation using the relative fluorescence units (RFU) (% activation = 100 × ((RFUmax − RFUbaseline)/RFUbaseline) − 100). Furthermore, the activities of each test compound against several subfamilies of TRP channels were represented as the relative enhancement of Ca^2+ influx of each positive control, indicated as follows: 20 µmol/L of allyl isothiocyanate (an agonist of TRPA1), 2 µmol/L of capsaicin (an agonist of TRPV1), 4 µmol/L of GSK1016790A (an agonist of TRPV4), and 20 µmol/L of icilin (an agonist of TRPM8). The dose–response curve was fitted to the sigmoidal dose-response equation (top, the max response of each compound), and EC50 values were calculated using GraphPad Prism 7 software (GraphPad, San Diego, CA, USA).

human TRPV1 = target: T2, human TRPV1 (Homo sapiens, UniProt Q8NER1); assay: Ca2+ influx assay in TRPV1-expressing T-REx-293 cells; type: cell-based; details: 10 µmol/L test compound, relative to 2 µmol/L capsaicin; for activation at 10 µM: T-REx-293, read-out: % of Activation Compared to Positive Control against Each Subfamily of TRP Channel TRPV1
T2 construct: Each full-length human TRPA1, TRPV1, TRPV4, and TRPM8 coding regions were introduced into a pcDNA4/TO vector; expressed in transfected cells; host or cells: T-REx-293 cells (tetracycline-induced, pcDNA4/TO vector)
Description: as §1, §2, §3

human TRPV4 = target: T3, human TRPV4 (Homo sapiens, UniProt Q9HBA0); assay: Ca2+ influx assay in TRPV4-expressing T-REx-293 cells; type: cell-based; details: 10 µmol/L test compound, relative to 4 µmol/L GSK1016790A; for activation at 10 µM: T-REx-293, read-out: % of Activation Compared to Positive Control against Each Subfamily of TRP Channel TRPV4
T3 construct: Each full-length human TRPA1, TRPV1, TRPV4, and TRPM8 coding regions were introduced into a pcDNA4/TO vector; expressed in transfected cells; host or cells: T-REx-293 cells (tetracycline-induced, pcDNA4/TO vector)
Description: as §1, §2, §3

human TRPM8 = target: T4, human TRPM8 (Homo sapiens, UniProt Q7Z2W7); assay: Ca2+ influx assay in TRPM8-expressing T-REx-293 cells; type: cell-based; details: 10 µmol/L test compound, relative to 20 µmol/L icilin; for activation at 10 µM: T-REx-293, read-out: % of Activation Compared to Positive Control against Each Subfamily of TRP Channel TRPM8
T4 construct: Each full-length human TRPA1, TRPV1, TRPV4, and TRPM8 coding regions were introduced into a pcDNA4/TO vector; expressed in transfected cells; host or cells: T-REx-293 cells (tetracycline-induced, pcDNA4/TO vector)
Description: as §1, §2, §3

T4 sequence (Q7Z2W7 whole entry): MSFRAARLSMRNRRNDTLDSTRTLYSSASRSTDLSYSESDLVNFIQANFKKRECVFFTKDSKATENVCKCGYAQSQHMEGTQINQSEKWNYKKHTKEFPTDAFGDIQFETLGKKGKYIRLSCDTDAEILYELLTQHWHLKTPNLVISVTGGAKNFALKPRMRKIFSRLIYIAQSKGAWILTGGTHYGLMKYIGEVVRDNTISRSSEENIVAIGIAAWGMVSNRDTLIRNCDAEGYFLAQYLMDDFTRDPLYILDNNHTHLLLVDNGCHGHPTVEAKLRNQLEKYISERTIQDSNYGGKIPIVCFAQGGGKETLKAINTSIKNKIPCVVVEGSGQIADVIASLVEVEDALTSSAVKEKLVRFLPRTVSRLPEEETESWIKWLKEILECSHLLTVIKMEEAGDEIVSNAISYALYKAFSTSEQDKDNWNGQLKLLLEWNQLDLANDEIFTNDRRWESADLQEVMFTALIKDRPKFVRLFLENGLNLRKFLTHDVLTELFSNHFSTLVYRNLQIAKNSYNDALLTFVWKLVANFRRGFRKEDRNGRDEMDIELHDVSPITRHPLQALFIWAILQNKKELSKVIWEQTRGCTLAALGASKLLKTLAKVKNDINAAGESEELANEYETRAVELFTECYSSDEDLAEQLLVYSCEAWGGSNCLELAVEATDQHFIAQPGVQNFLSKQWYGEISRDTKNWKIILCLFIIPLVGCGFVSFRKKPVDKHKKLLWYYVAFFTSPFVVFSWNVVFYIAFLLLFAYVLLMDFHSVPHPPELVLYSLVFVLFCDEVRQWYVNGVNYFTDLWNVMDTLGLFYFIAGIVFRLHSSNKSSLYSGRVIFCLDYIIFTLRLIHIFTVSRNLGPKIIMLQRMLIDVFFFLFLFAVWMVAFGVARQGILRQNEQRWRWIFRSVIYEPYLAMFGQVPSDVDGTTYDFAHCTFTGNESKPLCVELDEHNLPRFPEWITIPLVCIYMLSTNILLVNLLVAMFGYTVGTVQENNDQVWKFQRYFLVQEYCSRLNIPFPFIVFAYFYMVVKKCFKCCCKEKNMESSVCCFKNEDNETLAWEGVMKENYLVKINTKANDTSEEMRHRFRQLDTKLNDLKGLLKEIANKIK
T1 sequence (O75762 whole entry): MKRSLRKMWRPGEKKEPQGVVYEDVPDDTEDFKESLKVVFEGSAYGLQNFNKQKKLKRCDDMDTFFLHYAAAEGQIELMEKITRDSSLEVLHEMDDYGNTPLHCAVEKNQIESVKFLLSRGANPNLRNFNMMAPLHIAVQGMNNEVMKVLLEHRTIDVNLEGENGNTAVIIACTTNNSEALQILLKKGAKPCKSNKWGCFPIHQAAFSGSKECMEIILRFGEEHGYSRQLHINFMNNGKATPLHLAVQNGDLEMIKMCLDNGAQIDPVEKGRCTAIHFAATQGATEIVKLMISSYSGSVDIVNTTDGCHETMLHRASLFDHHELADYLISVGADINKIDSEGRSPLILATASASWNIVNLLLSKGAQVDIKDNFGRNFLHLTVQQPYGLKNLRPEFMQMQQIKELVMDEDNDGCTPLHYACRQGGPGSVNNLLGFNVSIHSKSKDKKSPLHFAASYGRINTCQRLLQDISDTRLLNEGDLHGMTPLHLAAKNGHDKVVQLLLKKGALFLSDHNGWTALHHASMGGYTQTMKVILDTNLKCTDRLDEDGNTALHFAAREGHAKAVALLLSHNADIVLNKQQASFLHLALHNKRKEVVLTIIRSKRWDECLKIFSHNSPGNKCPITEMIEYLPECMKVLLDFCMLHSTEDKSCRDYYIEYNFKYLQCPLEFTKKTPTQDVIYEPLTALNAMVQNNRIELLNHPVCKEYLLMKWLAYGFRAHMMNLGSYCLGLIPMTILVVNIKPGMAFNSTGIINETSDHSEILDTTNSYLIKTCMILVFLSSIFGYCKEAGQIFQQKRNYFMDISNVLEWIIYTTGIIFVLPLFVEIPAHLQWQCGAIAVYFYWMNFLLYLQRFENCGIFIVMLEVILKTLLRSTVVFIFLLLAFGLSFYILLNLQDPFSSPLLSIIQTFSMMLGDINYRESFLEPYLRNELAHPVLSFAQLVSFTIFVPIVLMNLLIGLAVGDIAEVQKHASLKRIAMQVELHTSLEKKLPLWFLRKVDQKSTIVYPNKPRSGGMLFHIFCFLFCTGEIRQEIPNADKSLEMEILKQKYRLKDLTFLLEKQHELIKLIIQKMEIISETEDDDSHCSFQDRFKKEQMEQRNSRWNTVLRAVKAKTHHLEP
T2 sequence (Q8NER1 whole entry): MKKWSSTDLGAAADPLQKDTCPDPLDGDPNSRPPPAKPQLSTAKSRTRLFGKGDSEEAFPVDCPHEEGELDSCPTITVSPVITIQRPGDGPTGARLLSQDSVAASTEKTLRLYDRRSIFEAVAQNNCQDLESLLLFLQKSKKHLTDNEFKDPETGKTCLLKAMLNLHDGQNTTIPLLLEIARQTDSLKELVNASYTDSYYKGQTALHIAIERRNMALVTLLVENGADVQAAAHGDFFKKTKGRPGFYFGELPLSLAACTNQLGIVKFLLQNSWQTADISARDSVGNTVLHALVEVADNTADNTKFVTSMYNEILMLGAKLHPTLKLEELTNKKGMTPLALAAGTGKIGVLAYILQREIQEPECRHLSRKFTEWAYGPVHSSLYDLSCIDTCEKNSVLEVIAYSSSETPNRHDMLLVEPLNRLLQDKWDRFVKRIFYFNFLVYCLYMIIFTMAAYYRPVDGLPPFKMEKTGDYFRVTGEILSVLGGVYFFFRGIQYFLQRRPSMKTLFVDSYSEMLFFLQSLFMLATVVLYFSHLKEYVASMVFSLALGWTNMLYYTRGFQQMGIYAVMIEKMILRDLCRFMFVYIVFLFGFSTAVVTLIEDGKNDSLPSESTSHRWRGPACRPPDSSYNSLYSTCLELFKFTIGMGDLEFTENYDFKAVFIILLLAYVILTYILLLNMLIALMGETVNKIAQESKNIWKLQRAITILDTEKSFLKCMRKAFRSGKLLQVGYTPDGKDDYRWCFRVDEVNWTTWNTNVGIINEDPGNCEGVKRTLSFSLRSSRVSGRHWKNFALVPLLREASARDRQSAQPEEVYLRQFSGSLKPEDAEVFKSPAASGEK
T3 sequence (Q9HBA0 whole entry): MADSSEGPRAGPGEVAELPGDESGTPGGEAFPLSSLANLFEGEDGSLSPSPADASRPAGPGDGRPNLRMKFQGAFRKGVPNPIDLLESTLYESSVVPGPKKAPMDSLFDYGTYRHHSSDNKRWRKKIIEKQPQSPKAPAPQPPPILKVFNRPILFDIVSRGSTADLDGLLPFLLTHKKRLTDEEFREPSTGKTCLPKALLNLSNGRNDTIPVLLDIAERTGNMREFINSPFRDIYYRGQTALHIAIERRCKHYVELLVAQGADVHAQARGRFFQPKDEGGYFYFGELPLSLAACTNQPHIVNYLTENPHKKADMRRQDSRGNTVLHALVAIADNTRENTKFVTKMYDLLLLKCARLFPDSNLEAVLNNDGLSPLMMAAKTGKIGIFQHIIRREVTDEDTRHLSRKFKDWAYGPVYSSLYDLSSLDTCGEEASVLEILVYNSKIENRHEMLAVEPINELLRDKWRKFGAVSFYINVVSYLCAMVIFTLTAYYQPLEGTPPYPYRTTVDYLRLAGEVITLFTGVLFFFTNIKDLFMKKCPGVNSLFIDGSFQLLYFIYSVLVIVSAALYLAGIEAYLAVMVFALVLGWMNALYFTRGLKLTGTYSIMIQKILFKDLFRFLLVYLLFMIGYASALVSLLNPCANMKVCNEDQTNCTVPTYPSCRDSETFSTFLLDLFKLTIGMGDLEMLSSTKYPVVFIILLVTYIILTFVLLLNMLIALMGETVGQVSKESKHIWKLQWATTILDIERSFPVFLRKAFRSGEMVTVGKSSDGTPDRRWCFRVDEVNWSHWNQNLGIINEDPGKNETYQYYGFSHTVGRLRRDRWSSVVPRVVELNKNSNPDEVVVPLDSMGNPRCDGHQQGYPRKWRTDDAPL

Row | Compound | % of Activation Compared to Positive Control against Each Subfamily of TRP Channel TRPA1 (human TRPA1) | % of Activation Compared to Positive Control against Each Subfamily of TRP Channel TRPV1 (human TRPV1) | % of Activation Compared to Positive Control against Each Subfamily of TRP Channel TRPV4 (human TRPV4) | % of Activation Compared to Positive Control against Each Subfamily of TRP Channel TRPM8 (human TRPM8) | activation at 10 µM (human TRPA1) | activation at 10 µM (human TRPV1) | activation at 10 µM (human TRPV4) | activation at 10 µM (human TRPM8) | further results
1 | CC=CC=CCCC=CC=CC(=O)NCC(C)C (single isomer, unassigned) [N-Isobutyl-2,4,8,10-dodecatetraenamide isomer] | – | – | – | – | – | – | – | – | AR-Treated Rat Plasma (detection of compound) [1]: + (The number of plus signs represents the sample number in which the compound was detected among AR-treated rat plasma (n = 1) and MBST-treated rat plasma (n = 3)); MBST-Treated Rat Plasma (detection of compound) [1]: + + + (The number of plus signs represents the sample number in which the compound was detected among AR-treated rat plasma (n = 1) and MBST-treated rat plasma (n = 3))
2 | Oc1ccc(C2OCC3C(c4ccc5c(c4)OCO5)OCC23)cc1O (stereo not drawn) [(7α,7′β,8α,8′α)-3,4-Methylenedioxy-3′,4′-dihydroxy-7,9′:7′,9-diepoxylignane] | – | – | – | – | – | – | – | – | AR-Treated Rat Plasma (detection of compound) [1]: + (The number of plus signs represents the sample number in which the compound was detected among AR-treated rat plasma (n = 1) and MBST-treated rat plasma (n = 3))
3 | COc1cc(O)cc2c1cc([N+](=O)[O-])c1c(C(=O)O)cc3c(c12)OCO3 [Aristolochic acid Iva] | – | – | – | – | – | – | – | – | AR-Treated Rat Plasma (detection of compound) [1]: + (The number of plus signs represents the sample number in which the compound was detected among AR-treated rat plasma (n = 1) and MBST-treated rat plasma (n = 3)); MBST-Treated Rat Plasma (detection of compound) [1]: + + + (The number of plus signs represents the sample number in which the compound was detected among AR-treated rat plasma (n = 1) and MBST-treated rat plasma (n = 3))
4 | CCN1C[C@]2(COC)[C@H](O)C[C@H](OC)[C@@]34[C@@H]5C[C@@]6(O)[C@H](OC(=O)c7ccccc7)[C@@H]5[C@@](O)([C@@H]([C@H](OC)[C@H]23)[C@@H]14)[C@@H](O)[C@@H]6OC [Benzoylaconitine] | 3% | −0.2% | 0.0% | 3.6% | – | – | – | – | –
5 | O.Oc1cc(O)c2c(c1)O[C@H](c1ccc(O)c(O)c1)[C@@H](O)C2 [Catechin] | 6% | −0.3% | 0.3% | 4.0% | – | – | – | – | –
6 | CN[C@@H](C)[C@H](O)c1ccccc1 [Ephedrine, (1R,2S)-(−)-Ephedrine, reference compound] | – | – | – | – | 3% | -0.5% | -0.4% | 3.2% | –
7 | Oc1cc(O)c2c(c1)O[C@H](c1ccc(O)c(O)c1)[C@H](O)C2 [Epicatechin] | – | – | – | – | 6% | 0% | 0.6% | 4.2% | –
8 | Oc1cc(O)c2c(c1)O[C@H](c1cc(O)c(O)c(O)c1)[C@H](O)C2 [Epigallocatechin] | – | – | – | – | 2% | -0.2% | 0.1% | 4.8% | –
9 | C=CCc1ccc(OC)cc1 [Estragole] | – | – | – | – | – | – | – | – | AR-Treated Rat Plasma (detection of compound) [1]: + (The number of plus signs represents the sample number in which the compound was detected among AR-treated rat plasma (n = 1) and MBST-treated rat plasma (n = 3))
10 | O=C(O)CNC(=O)c1ccccc1 [Hippuric acid] | – | – | – | – | 13% | 1% | 2.8% | 7.5% | –
11 | C=C1[C@H]2C[C@@H]3[C@H]4N5C[C@@]6(C)[C@H]7[C@@H]5C[C@]3([C@@H]1O)[C@@](O)(C2)[C@]74C[C@@H](OC(=O)c1ccccc1)[C@@H]6O [Ignavine] | 2% | −0.2% | −0.1% | 1.8% | – | – | – | – | –
12 | O=c1cc(-c2ccc(O)cc2)oc2cc(O)c([C@@H]3O[C@H](CO)[C@@H](O)[C@H](O)[C@H]3O)c(O)c12 [Isovitexin] | – | – | – | – | 18% | 0.2% | 2.3% | 4.3% | –
13 | CC(C(O)c1ccccc1)[N+](C)(C)[O-] (centres unmarked) [Methylephedrine N-oxide] | 21% | 0.3% | 1.8% | 4.5% | – | – | – | – | –
14 | CN[C@@H](C)[C@@H](O)c1ccccc1 [Pseudoephedrine, (S,S)-(+)-pseudoephedrine, reference compound] | – | – | – | – | 4% | -0.2% | -0.3% | 2.8% | –
15 | C/C=C/C=C\CC/C=C/C(=O)NCC(C)C [Spilanthol] | – | – | – | – | – | – | – | – | Detection in plasma of rats treated with AR or MBST (non-targeted analysis) ([1]; rat, in vivo, po): not detected
16 | O=c1cc(-c2ccc(O)cc2)oc2c([C@@H]3O[C@H](CO)[C@@H](O)[C@H](O)[C@H]3O)c(O)c([C@@H]3O[C@H](CO)[C@@H](O)[C@H](O)[C@H]3O)c(O)c12 [Vicenin-2] | 25% | 1.8% | 5.0% | 6.5% | – | – | – | – | –
17 | (1R,2S)-(−)-N-methylephedrine [reference compound] | 3% | −0.4% | −0.1% | 3.6% | – | – | – | – | –
18 | Neoline | 5% | −0.4% | 0.5% | 5.0% | – | – | – | – | –
